Source: patent publication US8124343B2, “IRE-1α substrates” (MannKind Corporation, priority 2005, dated 2012)
{BHQ1} = Black Hole Quencher-1 (BHQ-1) label; {FAM} = fluorescein (FAM) label

How the values were obtained:
Type in all cases: biochemical
IRE-1α [1] = molecular target: T1, IRE-1α (Homo sapiens, UniProt O75460); test: High-throughput screening assay of IRE-1α RNase activity; conditions: for fluorescence signal, average: 384-well plates
T1 construct: GST (N, cleaved yes); made in house; host or cells: baculovirus-infected insect cells
T1 sequence (O75460 with tags, fused parts or gaps): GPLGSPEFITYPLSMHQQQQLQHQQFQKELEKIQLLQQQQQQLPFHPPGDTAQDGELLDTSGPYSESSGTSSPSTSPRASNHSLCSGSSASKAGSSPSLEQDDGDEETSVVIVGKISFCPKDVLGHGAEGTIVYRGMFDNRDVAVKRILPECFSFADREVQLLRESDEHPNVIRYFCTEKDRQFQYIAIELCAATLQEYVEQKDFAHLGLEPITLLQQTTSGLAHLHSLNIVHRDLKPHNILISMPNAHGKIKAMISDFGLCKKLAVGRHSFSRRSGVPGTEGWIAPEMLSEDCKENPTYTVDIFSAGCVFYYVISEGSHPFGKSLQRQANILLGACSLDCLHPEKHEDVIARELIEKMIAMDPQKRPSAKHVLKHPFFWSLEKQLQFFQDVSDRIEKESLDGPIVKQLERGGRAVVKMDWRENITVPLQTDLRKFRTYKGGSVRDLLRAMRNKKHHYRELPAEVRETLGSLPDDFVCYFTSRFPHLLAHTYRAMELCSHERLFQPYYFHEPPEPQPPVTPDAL
Description: Five μl of a reaction mixture comprising 1× reaction buffer (5× reaction buffer is 100 mM Hepes pH 7.5, 250 mM KOAc, 2.5 mM MgCl2), 3 mM DTT, and 0.4% polyethylene glycol water were added to each well of 384 well plates. Twenty-five nanoliters of a 1 mM test compound solution were added to test wells. Three μl of a […] IRE-1α preparation were added to each test well and to positive control wells (final concentration 5.82 ng/well). Negative control wells contained only reaction mixture and test compound.
After spinning the plates at 1200 rpm for 30 seconds, 3 μl of a 63 nM wild-type IRE-1α substrate or 3 μl of a 63 nM mutant IRE-1α substrate diluted to 48 nM were added to each well of a control plate. The plates were again spun at 1200 rpm for 30 seconds. Final concentrations for the assay were: 63 nM wild-type IRE-1α substrate (or 48 nM mutant IRE-α substrate), 5.82 ng IRE-1α protein, and 2.5 μM test compound.
The plates were covered with lids and incubated for one hour at 30° C. The plates were then transferred to an ACQUEST™ microplate reader. Data was analyzed using data analysis software. The percent activity of IRE-1α was calculated using the following equation: […]
A Beckman Biomek FX robot was used to load all components of the reaction into 384-well plates in the following order: buffer with test compound, IRE-1α, and substrate into 384-well plates. Controls with substrate alone and substrate with IRE-1α were used to calibrate signal to noise ratio and variability between wells (first two left hand rows respectively, in FIG. 6). The two far right lanes in FIG. 6 contain the mutant 15 base dual-labeled substrate with and without IRE-1α as a quality control check for RNase contamination.

IRE-1α [2] = molecular target: T1, IRE-1α; test: IRE-1α RNase activity assay, reaction products separated on denaturing gel
IRE-1α [3] = molecular target: T1, IRE-1α; test: Kinetics of IRE-1α-mediated substrate cleavage; conditions: 20 nM purified IRE-1α, 63 nM substrate, 60 minute incubation, 30° C.
Description: Kinetics of IRE-1α-mediated substrate cleavage were measured in an assay as described above using purified active IRE-1α and the wild-type 15 base FAM-BHQ-1™-labeled substrate. The plate was incubated at 30° C. and read every 5 minutes.
These conditions result in a signal of 60,000 units, which is approximately 75% of the full 80,000 unit signal.

IRE-1α [4] = molecular target: T1, IRE-1α; test: Competition assay with 15 base wild-type dual-labeled substrate as readout
Description: Increasing amounts of either unlabeled wild-type (SEQ ID NO:1) or mutant 33 base substrate (SEQ ID NO:2) were incubated in the standard reaction as described in Example 2 for 1 hour at 30° C.
X-axis, fluorescence intensity; columns of Y axis, from left to right: 1, wild-type 15 base FAM BHQ-1™ substrate, no IRE-1α, and no competitor (background signal); 2, wild-type 15 base FAM BHQ-1™ substrate, no IRE-1α (background signal) plus 50 fold molar excess of unlabeled wild-type 33 base substrate (control for possible quenching of fluorophore with excess and possible hybridizing to the longer 33 base substrate); 3, wild-type 15 base FAM BHQ-1™ substrate with IRE-1α and an equivalent amount of wild-type 33 base substrate; 4, same as 3 with 2× wild-type 33 base substrate; 5, same as 3 with 5× wild-type 33 base substrate; 6, same as 3 with 10× wild-type 33 base substrate; 7, same as 3 with 20× wild-type 33 base substrate; 8, same as 3 with 50× wild-type 33 base substrate; 9, wild-type 15 base FAM BHQ-1™ substrate no IRE-1α (background signal) plus 50 fold molar excess of unlabeled mutant 33 base substrate (control for possible quenching of fluorophore with excess and possible hybridizing to the longer 33 base substrate (essentially the same as 2); 10, wild-type 15 base FAM BHQ-1™ substrate with IRE-1α and an equivalent amount of mutant 33 base substrate; 11, same as 3 with 2×33 base mutant substrate; 12, same as 3 with 5×33 base mutant substrate; 13, same as 3 with 10×33 base mutant substrate; 14, same as 3 with 20×33 base mutant substrate; 15, same as 3 with 50×33 base mutant substrate; 16, wild-type 15 base FAM BHQ-1™ substrate with IRE-1α (positive control).

[5] = with IRE-1α added, FIG. 3 lanes 13-14
[6] = with IRE-1α, no PEG, FIG. 3 lanes 3-4
[7] = with IRE-1α, with PEG, FIG. 3 lanes 7-8

| Substance | fluorescence signal, average (IRE-1α [1]; substrate alone (no IRE-1α)) | fluorescence signal, average (IRE-1α [1]; substrate and IRE-1α) | signal from cleaved FAM-BHQ1 labeled substrate (gel) (IRE-1α [2]; [5]) | cleavage of substrate by IRE-1α (gel) (IRE-1α [2]; [6]) | cleavage of substrate by IRE-1α (gel) (IRE-1α [2]; [7]) | also measured |
| --- | --- | --- | --- | --- | --- | --- |
| 5′-CAGUCCCCAGCACUG-3′ (chemistry not fully specified) [15 base mutant substrate, 15 base mutant substrate with 5′ FAM and 3′ BHQ-1 moieties] | 10393 | 10516 | no signal | – | – | – |
| 5′-CAGUCCGCAGCACUG-3′ (5' {FAM}, 3' {BHQ1}, sugars by position and backbone not given here) [15 base wild-type substrate, 15 base wild-type substrate with 5′ FAM and 3′ BHQ-1 moieties] | 12305 | 50076 | signal | – | – | ratio of positive control over background (IRE-1α [1]; wild-type substrate and IRE-1α over substrate alone): 4.07; signal (IRE-1α [3]; 10 μl reaction volume): 60,000 units; signal as share of the full 80,000 unit signal (IRE-1α [3]; 10 μl): approximately 75%; signal from cleaved FAM-BHQ1 labeled substrate (gel) (IRE-1α [2]; IRE-1α added diluted to 1:3, FIG. 3 lane 15): signal |
| 5′-GGGUCUGCUGAGUCCCCAG-CACUCAGAAGGCCC-3′ (GGGUCUGCUGAGUCCCCAGCACUCAGAAGGCCC; chemistry not given here) [33 base mutant substrate] | – | – | – | does not cut | does not cut | inhibitory activity (fluorescence intensity) (IRE-1α [4]; similar concentrations (ten-fold to 50-fold excess) of unlabeled competitor): no inhibitory activity |
| 5′-GGGUCUGCUGAGUCCGCAGCACUCAGAAGGCCC-3′ (chemistry not given here) [33 base wild-type substrate, 33 base wild-type stem-loop RNA substrate for IRE-1α] | – | – | – | cuts | cuts | inhibitory activity (fluorescence intensity) (IRE-1α [4]; 50-fold excess of unlabeled competitor, 1 hour at 30° C.): greater than 50%; competition with the 15 base IRE-1α substrate, inhibition of fluorescence intensity (IRE-1α [4]; ten-fold molar excess of unlabeled competitor, 1 hour at 30° C.): begins to compete; cleavage of substrate by IRE-1α (gel) (IRE-1α [2]; IRE-1α diluted 1:3, with PEG, FIG. 3 lane 9): cuts; cleavage of substrate by IRE-1α (gel) (IRE-1α [2]; IRE-1α diluted 1:12, with PEG, FIG. 3 lane 10): cuts; digestion of 33 base stem-loop substrate by IRE-1α (lower molecular weight band) (IRE-1α [2]; recombinant purified human IRE-1α, FIG. 3C): digested |
